Biological target: T1, efflux pump P-glycoprotein (Cavia porcellus, UniProt H0VLE6)
T1 construct: The small intestine of guinea pigs was immediately removed after sacrificing animals, cut lengthwise and rinsed; from tissue; host or cells: guinea pig small intestinal mucosa mounted in Ussing chambers
Assay: Permeation studies with rhodamine 123 across guinea pig small intestinal mucosa in Ussing chambers (efflux pump inhibition)
Type: in vitro ADME
Details: 0.5% (m/v)
Experimental: The small intestine of guinea pigs was immediately removed after sacrificing animals, cut lengthwise and rinsed with sterile 0.9% sodium chloride solution. Thereafter it was mounted in Ussing chambers. The incubation medium was a 50 mM Bis-Tris (bis[2-hydroxyethyl]imino-tris[hydroxymethyl]methane) pH 6.0 buffer containing 250 mM NaCl, 2.6 mM MgSO4, 10 mM KCl, 40 mM glucose and 50 mM NaHCO3. […] J Pharm Sei. […] At predetermined time points samples were withdrawn from the acceptor chamber—facing to the basolateral site of the mucosa and replaced by fresh incubation medium. […] In addition all permeation studies described above were also performed with the mucosa being mounted in the opposite direction, so that the donor compartment is facing the basolateral site of the mucosa. In parallel, the same experiments were performed with the only difference that the donor- and acceptor compartment contained additionally glutathione in a concentration of 0.5%.
In order to compare the inhibitory effect of glutathione and/or polythiol-compounds with well-known inhibitors on efflux pumps of the gastrointestinal mucosa, they were tested in parallel.

T1 sequence (H0VLE6 1-1243): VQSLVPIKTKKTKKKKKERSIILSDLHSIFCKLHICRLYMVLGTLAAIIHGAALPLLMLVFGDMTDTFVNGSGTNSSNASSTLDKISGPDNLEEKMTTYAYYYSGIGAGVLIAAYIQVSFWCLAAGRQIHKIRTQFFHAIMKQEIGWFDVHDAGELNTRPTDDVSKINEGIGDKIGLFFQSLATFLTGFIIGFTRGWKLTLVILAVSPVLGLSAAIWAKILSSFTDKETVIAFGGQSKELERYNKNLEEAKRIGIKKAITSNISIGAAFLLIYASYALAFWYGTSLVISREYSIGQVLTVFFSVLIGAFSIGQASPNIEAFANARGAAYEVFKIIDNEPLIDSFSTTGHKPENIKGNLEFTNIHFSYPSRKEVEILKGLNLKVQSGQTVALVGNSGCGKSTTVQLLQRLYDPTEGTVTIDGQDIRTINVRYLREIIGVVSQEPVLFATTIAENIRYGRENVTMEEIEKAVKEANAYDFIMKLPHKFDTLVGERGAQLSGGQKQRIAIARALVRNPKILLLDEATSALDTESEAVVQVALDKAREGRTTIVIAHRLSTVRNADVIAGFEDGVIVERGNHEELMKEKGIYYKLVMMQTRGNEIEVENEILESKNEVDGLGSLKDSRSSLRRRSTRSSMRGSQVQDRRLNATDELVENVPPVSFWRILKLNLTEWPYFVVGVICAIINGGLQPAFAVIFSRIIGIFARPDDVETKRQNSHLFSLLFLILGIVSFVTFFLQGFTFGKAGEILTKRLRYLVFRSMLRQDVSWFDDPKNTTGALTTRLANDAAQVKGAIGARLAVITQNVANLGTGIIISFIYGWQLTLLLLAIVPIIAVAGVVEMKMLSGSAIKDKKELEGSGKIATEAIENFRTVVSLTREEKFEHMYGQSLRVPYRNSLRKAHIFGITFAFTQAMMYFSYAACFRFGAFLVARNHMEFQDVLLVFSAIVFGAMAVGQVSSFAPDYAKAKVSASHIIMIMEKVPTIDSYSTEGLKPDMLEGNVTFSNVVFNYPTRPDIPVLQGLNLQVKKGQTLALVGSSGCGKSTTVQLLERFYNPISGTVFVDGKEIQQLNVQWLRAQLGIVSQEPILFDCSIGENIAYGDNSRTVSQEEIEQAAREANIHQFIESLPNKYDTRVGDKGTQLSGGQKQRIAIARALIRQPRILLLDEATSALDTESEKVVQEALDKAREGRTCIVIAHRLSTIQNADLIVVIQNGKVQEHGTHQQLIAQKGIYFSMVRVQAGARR

N[C@@H](CCC(=O)N[C@@H](CS)C(=O)NCC(=O)O)C(=O)O [Glutathione, glutathione]
effect on rhodamine permeation at 4° C. compared with 37° C. (4° C.): dramatically lower effect
permeation of rhodamine in the absorptive direction in the presence of the compound (37° C., apical to basolateral): significantly improved
permeation of rhodamine in the secretory direction in the presence of the compound (37° C., basolateral to apical): significantly reduced
efflux pump inhibitory effect (37° C., p<0.05, rhodamine 123): statistically significant

— US20080200563A1, “Use of Compounds Containing Thiol Groups as Efflux Pump Inhibitors” (ThioMatrix Forschungs- und Beratungs- GmbH, priority 2004, published 2008)
